From publication PMC9777575, “Exploring the Promotive Effects and Mechanisms of Different Polyphenolic Extracts from Prinsepia utilis Royle Seed Shell on Tyrosinase” (Foods, 2022)

Key:
mushroom tyrosinase = assay: Enzyme kinetic analysis (Lineweaver-Burk) of mushroom tyrosinase; type: biochemical; conditions: sample used as substrate
Protocol: The enzyme kinetics was determined by referring to the previously reported method with appropriate modifications. […] As described in Section 2.5, a blank group, a blank control group and a sample control group were set up. The initial rate of dopachrome formation in the reaction mixture was determined as an increase in absorbance at a wavelength of 475 nm per minute by using a microplate reader. The Michaelis constant (Km) and maximal velocity (Vmax) of tyrosinase activity were determined by Lineweaver-Burk plots using different concentrations of (+)-catechin and (−)-epicatechin as substrates.

[1] = target: Tyrosinase (from mushroom, EC1.14.18.1); assay: Mushroom tyrosinase activity assay (L-DOPA substrate, absorbance at 475 nm); type: biochemical; conditions: effective concentration to promote relative enzyme activity at 150%, 37 °C, 30 min, read-out: EC50 of activation effect on tyrosinase
Protocol: The tyrosinase activity was determined by referring to the previously reported method with appropriate modifications. […] The reaction was carried out at 37 °C for 30 min and the absorbance values were recorded at 475 nm with a Spectra Max M5 microplate reader (Molecular Device, Sunnyvale, CA, USA). Blank group (system containing PBS, enzyme and L-DOPA solution), blank control group (system containing PBS and L-DOPA solution), and sample control group (system containing PBS, sample solution and L-DOPA solution) were also set up. The relative enzyme activity of each sample group was calculated using the following formula: Relative enzyme activity (%) = [(B1 − B2)/(A1 − A2)] × 100 where A1 = absorbance of the blank group, A2 = absorbance of the blank control group, B1 = absorbance of the sample group and B2 = absorbance of the sample control group. The effective concentration of each sample to promote relative enzyme activity at 150% was calculated as EC50 value.

tyrosinase = target: tyrosinase; design: method as in PMID 33782442; conditions: read-out: EC50 of activation effect on tyrosinase; cited from earlier work

Row | Structure (SMILES) | Km (mushroom tyrosinase; DOPA 1 mM) [µM] | Vm of tyrosinase activity (mushroom tyrosinase; DOPA 1 mM) | Km (mushroom tyrosinase; DOPA 1.5 mM) [µM] | Vm of tyrosinase activity (mushroom tyrosinase; DOPA 1.5 mM) | Km (mushroom tyrosinase; DOPA 2 mM) [µM] | Vm of tyrosinase activity (mushroom tyrosinase; DOPA 2 mM) | EC50 [1] [µM] | EC50 (tyrosinase) [µM]
1 | Oc1cc(O)c2c(c1)OC(c1ccc(O)c(O)c1)C(O)C2 (single isomer, unassigned; (+)) [(+)-Catechin] | 62 | 200.00 | 74.3 | 175.44 | 87 | 158.73 | 32.5 ± 1.7 | 
2 | O=C(CCc1ccc(O)c(O)c1)c1c(O)cc(O)c([C@@H]2O[C@H](CO)[C@@H](O)[C@H](O)[C@H]2O)c1O [Aspalathin] |  |  |  |  |  |  |  | 265 ± 4.56
3 | Oc1cc(O)c2c(c1)O[C@H](c1ccc(O)c(O)c1)[C@H](O)C2 [(−)-Epicatechin] | 11.2 | 85.47 | 11.7 | 80.00 | 18 | 71.94 | 36.7 ± 0.43 | 
